In US7569724B2, “Carbamic acid compounds comprising an amide linkage as HDAC inhibitors” (Topotarget UK Limited, priority 2000, dated 2009):
Structures can show the parent of a compound that is named as a salt. Where two headings read alike, the source gives them in different places.

Key:
HDAC (HeLa cell extract) = test: Primary assay: deacetylase activity, HeLa cell extract as source of HDAC; assay type: biochemical, human; details: HeLa cell extract
From the text: Briefly, this assay relies on the release of radioactive acetate from a radioactively labelled histone fragment by the action of HDAC enzyme. Test compounds, which inhibit HDAC, reduce the yield of radioactive acetate. Signal (e.g., scintillation counts) measured in the presence and absence of a test compound provide an indication of that compound's ability to inhibit HDAC activity. Decreased activity indicates increased inhibition by the test compound.
The histone fragment was an N-terminal sequence from histone H4, and it was labelled with radioactively labelled acetyl groups using tritiated acetylcoenzyme A (coA) in conjunction with an enzyme which is the histone acetyltransferase domain of the transcriptional coactivator p300. […] The acetylated peptide was then separated from free acetyl coA by size exclusion chromatography on Sephadex G-15 (Sigma G-15-120), using distilled H2O as the mobile phase.
After purification of the radiolabelled histone fragment, it was incubated with a source of HDAC (e.g., an extract of HeLa cells (a rich source of HDAC), recombinantly produced HDAC1 or HDAC2) and any released acetate was extracted into an organic phase and quantitatively determined using scintillation counting. By including a test compound with the source of HDAC, that compound's ability to inhibit the HDAC was determined.
The HeLa cell extract was made from HeLa cells (ATCC Ref. No. CCL-2) by freeze-thawing three times in 60 mM TrisCl pH 8.0, 450 mM NaCl, 30% glycerol. Two cell volumes of extraction buffer were used, and particulate material was centrifuged out (20800 g, 4° C., 10 min). The supernatant extract having deacetylase activity was aliquotted and frozen for storage.
A source of HDAC (e.g., 2 μL of crude HeLa extract, 5 μL of HDAC1 or HDAC2; in elution buffer, as above) was incubated with 3 μL of radioactively labelled peptide along with appropriate dilutions of candidate compounds (1.5 μL) in a total volume of 150 μL of buffer (20 mM Tris pH 7.4, 10% glycerol). The reaction was carried out at 37° C. for one hour, after which the reaction was stopped by adding 20 μL of 1 M HCl/0.4 M sodium acetate. […] Radioactivity was measured using a Tri-Carb 2100TR Liquid Scintillation Analyzer (Packard).
Percent activity (% activity) for each test compound was calculated as: % activity={(S^C−B)/(S^o−B)}×100 wherein S^C denotes signal measured in the presence of enzyme and the compound being tested, S^o denotes signal measured in the presence of enzyme but in the absence of the compound being tested, and B denotes the background signal measured in the absence of both enzyme and compound being tested.

HeLa cells = test: Secondary assay: cell proliferation WST-1, HeLa; assay type: cell-based; details: Homo sapiens, 48 h, read-out: Cell Proliferation Inhibition WST-1 (IC50 unless otherwise specified) HeLa
Method: Compounds with HDAC inhibition activity, as determined using the primary assay, were subsequently evaluated using secondary cell-based assays. The following cell lines were used:
HeLa—Human cervical adenocarcinoma cell line (ATCC ref. No. CCL-2).
Cells were plated in 96-well plates at 3-10×10^3 cells/well in 100 μL of culture medium. The following day, different concentrations of candidate compounds were added and the cells incubated at 37° C. for 48 h. Subsequently, 10 μL/well of WST-1 reagent was added and the cells reincubated for 1 hour. After the incubation time, absorbance was measured.
WST-1 is a tetrazolium salt which is cleaved to formazan dye by cellular enzymes. An expansion in the number of viable cells results in an increase in the overall activity of mitochondrial dehydrogenases in the sample. This augmentation in the enzyme activity leads to an increase in the amount of formazan dye formed, which directly correlates to the number of metabolically active cells in the culture. The formazan dye produced is quantified by a scanning multiwell spectrophotometer by measuring the absorbance of the dye solution at 450 nm wavelength (reference wavelength 690 nm).
Percent activity (% activity) in reducing the number of viable cells was calculated for each test compound as: % activity={(S^C−B)/(S^o−B)}×100 wherein S^C denotes signal measured in the presence of the compound being tested, S^o denotes signal measured in the absence of the compound being tested, and B denotes the background signal measured in blank wells containing medium only.
IC50 values were calculated using the software package Prism 3.0 (GraphPad software Inc., San Diego, Calif.), setting top value at 100 and bottom value at 0.

[1] = read-out: HDAC Inhibition (IC50 unless otherwise specified) HeLa
[2] = comparative tables, no unit in cell, read-out: HeLa IC50

SMILES | HDAC Inhibition HeLa, percent (HDAC (HeLa cell extract); @ 500 nM) [% @ 500 nM] | HDAC Inhibition HeLa, percent (HDAC (HeLa cell extract); @ 1 μM) [% @ 1 μM] | other results
O=C(/C=C/C=C/c1cccc2ccccc12)NCCCCCC(=O)NO [PX117237, (2E)(4E)-5-Naphthalen-1-yl-penta-2,4-dienoic acid (5-hydroxycarbamoylpentyl)amide] |  |  | IC50 (HDAC (HeLa cell extract); [1]): 63 nM; IC50 (HDAC (HeLa cell extract); comparative tables, read-out: HeLa IC50): 63 nM; IC50 (HeLa cells): 17000 nM
O=C(/C=C/C=C/c1ccccc1)NCCC(=O)NO [PX083448] |  |  | IC50 (HDAC (HeLa cell extract); [1]): > 1000 nM; IC50 (HDAC (HeLa cell extract); [2]): > 1000 nM
O=C(CCCCNC(=O)c1ccccc1)NO [PX089049, N-(4-Hydroxycarbamoyl-butyl)-benzamide] |  |  | IC50 (HDAC (HeLa cell extract); [1]): > 1000 nM
O=C(/C=C/c1ccc(NC(=O)c2ccc3ccccc3c2)cc1)NO [PX116246, Naphthalene-2-carboxylic acid [4-(2-hydroxycarbamoyl-vinyl)-phenyl]-amide] | 52 |  | 
O=C(/C=C/c1ccccc1)NCCC(=O)NO [PX083806] |  | 19 | 
COc1ccc(NC(=O)CCCC(=O)NO)cc1 [PX082546, Pentanedioic acid hydroxyamide (4-methoxy-phenyl)-amide] |  | 36 | 
O=C(/C=C\C=C\c1ccc(Br)cc1)NCCCC(=O)NO [PX105846, (2Z)(4E)-5-(4-Bromophenyl)penta-2,4-dienoic acid (3-hydroxycarbamoyl-propyl)amide] | 46 |  | 
CC(/C=C/c1ccccc1)=C\C(=O)NCCCCCC(=O)NO [PX106526, (2E,4E)-3-Methyl-5-phenylpenta-2,4-dienoic acid (5-hydroxycarbamoylpentyl)-amide] |  |  | IC50 (HeLa cells): 2100 nM
O=C(CCCCCNC(=O)CCCc1ccccc1)NO [PX116210, N-Hydroxy-6-[(4-phenylbutanoyl)amino]hexanamide] | 19 |  | 
COc1ccc(NC(=O)CCCC(=O)NO)cc1OC [PX082549, Pentanedioic acid (3,4-dimethoxy-phenyl)-amide hydroxyamide] |  | 43 | 
O=C(/C=C/C=C/c1ccc(Br)cc1)NCCCC(=O)NO [PX105816, (2E)(4E)-5-(4-Bromophenyl)penta-2,4-dienoic acid (3-hydroxycarbamoylpropyl)amide] | 20 |  | 
COc1ccc(C(=O)NCCCCC(=O)NO)cc1 [PX089048, N-(4-Hydroxycarbamoyl-butyl)-4-methoxy-benzamide] |  | 34 | 
CN(C)c1ccc(CC(=O)NCCCC(=O)NO)cc1 [PX082532, 4-(2-(4-Dimethylamino-phenyl)-acetylamino)-N-hydroxy-butyramide] |  | 21 | 
O=C(CCCCCCC(=O)Nc1ccccc1)NO [SAHA, Suberoylanilide Hydroxamic Acid, reference compound] |  |  | IC50 (HeLa cells): 2200 nM
Nc1nonc1C(=O)NCCCCCC(=O)NO [PX106519, 4-Aminofurazan-3-carboxylic acid (5-hydroxycarbamoylpentyl)amide] | 46 |  | 
O=C(/C=C/C=C/c1ccccc1)NCCCC(=O)NO [PX083808] |  |  | IC50 (HDAC (HeLa cell extract); [1]): 20000 nM; IC50 (HDAC (HeLa cell extract); [2]): > 20000 nM
O=C(/C=C/c1ccc([N+](=O)[O-])cc1)NCCC(=O)NO [PX083807, N-(2-Hydroxycarbamoyl-ethyl)-3-(4-nitro-phenyl)-acryamide] |  | 9 | 
CN(CCCC(=O)NO)C(=O)/C=C/C=C/c1ccccc1 [PX105668] |  |  | IC50 (HDAC (HeLa cell extract); [1]): > 10000 nM

SMILES | HDAC Inhibition HeLa, percent (HDAC (HeLa cell extract); @ 500 nM) [% @ 500 nM] | HDAC Inhibition HeLa, percent (HDAC (HeLa cell extract); @ 1 μM) [% @ 1 μM] | other results
COc1ccc(/C=C/C=C/C(=O)NCCCC(=O)NO)cc1 [PX105670] |  | 29 | 
O=C(/C=C/c1ccccn1)NCCCCCC(=O)NO [PX106528, (E)-N-(5-Hydroxycarbamoylpentyl)-3-pyridin-2-yl-acrylamide oxalate] | 67 |  | 
CN(C)c1ccc(C=CC(=O)NCCCCCC(=O)NO)cc1 [PX105533] |  |  | IC50 (HDAC (HeLa cell extract); [2]): 18 nM
CN(C)c1ccc(C(=O)NCCCC(=O)NO)c2ccccc12 [PX082533] |  | 2 | percent HDAC inhibition at the stated concentration (HDAC (HeLa cell extract); comparative tables, @ 1 μM): 2% @ 1 μM
O=C(/C=C/c1ccc(NC(=O)c2ccccc2)cc1)NO [PX117231, N-[4-(2-Hydroxycarbamoyl-vinyl)-phenyl]-benzamide] | 72 |  | percent HDAC inhibition at the stated concentration (HDAC (HeLa cell extract); comparative tables, @ 1 μM): 72% @ 1 μM
O=C(/C=C/c1ccc(C(F)(F)F)cc1)NCCC(=O)NO [PX089283, N-(2-Hydroxycarbamoyl-ethyl)-3-(4-trifluoromethyl-phenyl)-acryamide] |  | 21 | 
CC(C)c1ccc(NC(=O)CCCC(=O)NO)cc1 [PX082548, Pentanedioic acid hydroxyamide (4-isopropyl-phenyl)-amide] |  | 41 | 
O=C(/C=C/c1ccc([N+](=O)[O-])cc1)NCCCC(=O)NO [PX083803, N-Hydroxy-4-(3-4-(nitro-phenyl)-acryoylamino)-butyramide] |  | 15 | 
O=C(CC(=O)NCCc1ccccc1)NO [PX099268] |  |  | HDAC Inhibition HeLa, percent (HDAC (HeLa cell extract); @ 10 μM): 18% @ 10 μM
O=C(CCCCCNC(=O)c1ccoc1)NO [PX116219, Furan-3-carboxylic acid (5-hydroxycarbamoyl-pentyl)-amide] | 26 |  | 
O=C(/C=C/c1cccnc1)NCCCCCC(=O)NO [PX116231, E-N-(5-Hydroxycarbamoyl-pentyl)-3-pyridin-3-yl-acrylamide oxalate] | 51 |  | 
CN(C)c1ccc(/C=C/C(=O)NCCCC(=O)NO)cc1 [PX083447, 4-(3-(4-Dimethylamino-phenyl)-acryoylamino)-N-hydroxy-butyramide] |  | 15 | 
O=C(CCc1ccc(NC(=O)c2ccccc2)cc1)NO [PX117232, N-[4-(2-Hydroxycarbamoyl-ethyl)-phenyl]-benzamide] | 43 |  | percent HDAC inhibition at the stated concentration (HDAC (HeLa cell extract); comparative tables, @ 1 μM): 43% @ 1 μM
O=C(/C=C/C=C/c1ccco1)NCCCCCC(=O)NO [PX116230] |  |  | HDAC Inhibition (IC50 unless otherwise specified) HeLa (HDAC (HeLa cell extract)): insoluble
O=C(/C=C/C=C/c1ccccc1)NCCCCC(=O)NO [PX105832, (2E)(4E)-5-Phenylpenta-2,4-dienoic acid (4-hydroxycarbamoyl-butyl)amide] |  |  | IC50 (HDAC (HeLa cell extract); [1]): 438 nM; IC50 (HDAC (HeLa cell extract); [2]): 438 nM
O=C(/C=C/C=C/c1ccc(Cl)cc1)NCCCC(=O)NO [PX105845, (2E)(4E)-5-(4-Chlorophenyl)-penta-2,4-dienoic acid (3-hydroxycarbamoylpropyl)-amide] | 22 |  | 
O=C(/C=C/c1ccc(C(F)(F)F)cc1)NCCCC(=O)NO [PX083804, N-Hydroxy-4-(3-4-(trifluoromethyl-phenyl)-acryoylamino)-butyramide] |  | 14 | 
